In patent publication US6344350B1, “Method for degradation of pinenes by bacillus isolates” (priority 1997, dated 2002):

Experiments:
pinene hydroxylase = test: Pinene hydroxylase activity in crude cell extracts; assay type: biochemical, Bacillus BR424; conditions: for pinene hydroxylase activity with cofactor: NADPH and NADH in place of FAD and potassium ferricyanide
Bacillus isolate BR425 = test: Growth of BR425 on monoterpenes as carbon source (CFU); assay type: cell-based; conditions: for growth in media containing the monoterpene as the carbon source: BR425; for optimal concentration for growth: BR425, M9 salts, monoterpene as carbon source, 50° C.
Procedure: For examination of growth rates on various substrates and metabolite production, BR425 was grown in 100 ml serum bottles containing 40 ml M9 salts and various concentrations of either α-pinene, β-pinene, limonene, carveol, carvone, or pinocarveol as the carbon source. The bottles were sealed with TEFLON-coated stoppers and aluminum caps (TEFLON is a trademark owned by E. I. du Pont and Nemours, Wilmington, Del.). Then the bottles were incubated in a water bath gyrorotatory shaker at 50° C. Growth of BR425 was assayed after incubations of 24, 48, and 72 hours as number of colony forming units (CFU).

BR424 = test: Growth of BR424 on monoterpenes; assay type: cell-based, Bacillus isolate BR424

| Molecule | growth in media containing the monoterpene as the carbon source (Bacillus isolate BR425) | optimal concentration for growth (Bacillus isolate BR425) [%] | also measured |
| --- | --- | --- | --- |
| NC(=O)C1=CN([C@@H]2O[C@H](COP(=O)(O)OP(=O)(O)OC[C@H]3O[C@@H](n4cnc5c(N)ncnc54)[C@H](OP(=O)(O)O)[C@@H]3O)[C@@H](O)[C@H]2O)C=CC1 [NADPH] |  |  | pinene hydroxylase activity with cofactor (pinene hydroxylase): No pinene hydroxylase activity was detected |
| C=C1CCC2CC1C2(C)C (stereo not drawn) [β-pinene] | shown to grow | 0.2 | growth in media containing the monoterpene (BR424): can grow |
| C=C(C)C1CC=C(C)[C@@H](O)C1 (stereo partly drawn) [carveol] | shown to grow | 0.05 |  |
| CC1=CCC2CC1C2(C)C (stereo not drawn) [α-pinene] |  | 0.2 | growth in media containing the monoterpene (BR424): can grow |
| CC1(C)C2CC3OC3(C)C1C2 (stereo not drawn) [pinene epoxide] | did not appear to grow |  |  |
| C=C(C)C1CC=C(C)C(=O)C1 (stereo not drawn) [carvone] | shown to grow | 0.01 |  |
| NC(=O)C1=CN([C@@H]2O[C@H](COP(=O)(O)OP(=O)(O)OC[C@H]3O[C@@H](n4cnc5c(N)ncnc54)[C@H](O)[C@@H]3O)[C@@H](O)[C@H]2O)C=CC1 [NADH] |  |  | pinene hydroxylase activity with cofactor (pinene hydroxylase): No pinene hydroxylase activity was detected |
| Cc1cc2nc3c(=O)[nH]c(=O)nc-3n(C[C@H](O)[C@H](O)[C@H](O)COP(=O)(O)OP(=O)(O)OC[C@H]3O[C@@H](n4cnc5c(N)ncnc54)[C@H](O)[C@@H]3O)c2cc1C [FAD, Flavin Adenine Dinucleotide] |  |  | Enzyme activity (pinene hydroxylase; addition 0.1 mM FAD): 0.04 U/ml; Enzyme activity (pinene hydroxylase; addition 1 mM FAD): 0.47 U/ml |
| C=C(C)[C@H]1CC=C(C)CC1 [limonene] | shown to grow |  | growth in media containing the monoterpene (BR424): did not appear to be able to grow |
| CC1(C)C2CC=C(CO)C1C2 (stereo not drawn) [myrtenol] | did not appear to grow |  |  |
| myrtenal | did not appear to grow |  |  |
